Assay results taken from publication PMC7023430, “4-Aminobenzoic Acid Derivatives: Converting Folate Precursor to Antimicrobial and Cytotoxic Agents” (Biomolecules, 2019).
In brackets after ≈: the same amount, converted by molar mass. Like-named read-outs stand apart in the source and are kept apart here.

Experiments:
[1] = test system: Mycobacterium avium 330/88; assay: Antimycobacterial micromethod in Šula's medium, M. avium; type: cell-based
Candida tropicalis 156 = assay: Antifungal microdilution broth method, C. tropicalis; type: cell-based
Method in brief: (§1)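 MIC by visual endpoint reading after twofold serial dilution of DMSO-dissolved compounds in RPMI-1640 (L-glutamine, 2% glucose, pH 7.0 with MOPS). Method follows EUCAST instructions, slightly modified; duplicates required agreement within one dilution step.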

[2] = test system: Aspergillus fumigatus 231; assay: Antifungal microdilution broth method, A. fumigatus; type: cell-based
Method in brief: as §1

Trichosporon asahii 1188 = assay: Antifungal microdilution broth method, T. asahii; type: cell-based
Method in brief: as §1

[3] = test system: Enterococcus faecalis ATCC 29212, CCM 4224; assay: Antibacterial microdilution broth method, E. faecalis; type: cell-based; conditions: Enterococcus faecalis
Candida krusei E28 = assay: Antifungal microdilution broth method, C. krusei; type: cell-based; conditions: Pichia kudriavzevii
Method in brief: as §1

[4] = test system: methicillin-resistant Staphylococcus aureus ATCC 43300, CCM 4750 (MRSA); assay: Antibacterial microdilution broth method, MRSA; type: cell-based; conditions: Staphylococcus aureus
[5] = test system: Mycobacterium tuberculosis H37Rv (331/88); assay: Antimycobacterial micromethod in Šula's medium, M. tuberculosis; type: cell-based
[6] = test system: Mycobacterium kansasii 235/80; assay: Antimycobacterial micromethod in Šula's medium, M. kansasii 235/80; type: cell-based
[7] = test system: Escherichia coli ATCC 25922, CCM 3954; assay: Antibacterial microdilution broth method, E. coli; type: cell-based; conditions: Escherichia coli
[8] = test system: Staphylococcus epidermidis H 6966/08; assay: Antibacterial microdilution broth method, S. epidermidis; type: cell-based; conditions: Staphylococcus epidermidis, H6966/08, S. epidermidis
[9] = test system: Lichtheimia corymbifera 272; assay: Antifungal microdilution broth method, L. corymbifera; type: cell-based
Method in brief: as §1

[10] = test system: M. kansasii 6509/96 (clinical isolate); assay: Antimycobacterial micromethod in Šula's medium, M. kansasii 6509/96; type: cell-based; conditions: Mycobacterium kansasii
[11] = test system: Klebsiella pneumoniae D 11750/08; assay: Antibacterial microdilution broth method, K. pneumoniae; conditions: K. pneumoniae D 11750/08; for MIC KP 24 h: 24 h incubation; for MIC KP 48 h: 48 h incubation
[12] = test system: Trichophyton interdigitale 445; assay: Antifungal microdilution broth method, T. interdigitale; type: cell-based
Method in brief: as §1

[13] = test system: ESBL-positive Klebsiella pneumoniae J 14368/08
[14] = 330/88, 336 h, 14 days incubation at 37 °C, read-out: MIC M. avium 330/88 14 d
[15] = 330/88, 504 h, 21 days incubation at 37 °C, read-out: MIC M. avium 330/88 21 d
[16] = 24 h incubation, read-out: MIC EF 24 h
[17] = 48 h incubation, read-out: MIC EF 48 h
[18] = 24 h incubation, read-out: MIC MRSA 24 h
[19] = 48 h incubation, read-out: MIC MRSA 48 h
[20] = 336 h, 14 days incubation at 37 °C, read-out: MIC Mtb. 331/88 14 d
[21] = 504 h, 21 days incubation at 37 °C, read-out: MIC Mtb. 331/88 21 d
[22] = 235/80, 168 h, 7 days incubation at 37 °C, read-out: MIC M. kansasii 235/80 7 d
[23] = 235/80, 336 h, 14 days incubation at 37 °C, read-out: MIC M. kansasii 235/80 14 d
[24] = 235/80, 504 h, 21 days incubation at 37 °C, read-out: MIC M. kansasii 235/80 21 d
[25] = 24 h incubation, read-out: MIC EC 24 h
[26] = 48 h incubation, read-out: MIC EC 48 h
[27] = 24 h incubation, read-out: MIC SE 24 h
[28] = 48 h incubation, read-out: MIC SE 48 h
[29] = 168 h, 7 days incubation at 37 °C, read-out: MIC M. kansasii 6509/96 7 d
[30] = 336 h, 14 days incubation at 37 °C, read-out: MIC M. kansasii 6509/96 14 d
[31] = 504 h, 21 days incubation at 37 °C, read-out: MIC M. kansasii 6509/96 21 d

SMILES | MIC [1, 14] [µM] | MIC [1, 15] [µM] | MIC (Candida tropicalis 156; 24 h, read-out: MIC CT 24 h) [µM] | MIC (Candida tropicalis 156; 48 h, read-out: MIC CT 48 h) [µM] | MIC ([2]; 24 h, read-out: MIC AF 24 h) [µM] | MIC ([2]; 48 h, read-out: MIC AF 48 h) [µM] | MIC (Trichosporon asahii 1188; 24 h, read-out: MIC TA 24 h) [µM] | MIC (Trichosporon asahii 1188; 48 h, read-out: MIC TA 48 h) [µM] | MIC [3, 16] [µM] | MIC [3, 17] [µM] | MIC (Candida krusei E28; 24 h, read-out: MIC CK 24 h) [µM] | MIC (Candida krusei E28; 48 h, read-out: MIC CK 48 h) [µM] | MIC [4, 18] [µM] | MIC [4, 19] [µM] | MIC [5, 20] [µM] | MIC [5, 21] [µM] | MIC [6, 22] [µM] | MIC [6, 23] [µM] | MIC [6, 24] [µM] | MIC [7, 25] [µM] | further results
O=C(O)c1ccc(N=Cc2cc(F)ccc2O)cc1 [1b, 4-[(5-Fluoro-2-hydroxybenzylidene)amino]benzoic acid] | > 1000 | > 1000 | > 500 | > 500 | > 500 | > 500 | > 500 | > 500 | > 500 | > 500 | > 500 | > 500 | > 500 | > 500 | 500 (≈ 130 µg/mL) | 500 (≈ 130 µg/mL) | 250 (≈ 64.8 µg/mL) | 500 (≈ 130 µg/mL) | 500 (≈ 130 µg/mL) | > 500 | MIC [7, 26]: > 500 µM; MIC [8, 27]: > 500 µM; MIC [8, 28]: > 500 µM; MIC ([9]; 24 h, read-out: MIC LC 24 h): > 500 µM; MIC ([9]; 48 h, read-out: MIC LC 48 h): > 500 µM; MIC [10, 29]: 500 µM (≈ 130 µg/mL); MIC [10, 30]: 500 µM (≈ 130 µg/mL); MIC [10, 31]: 500 µM (≈ 130 µg/mL); MIC KP 24 h [11]: >500 µM; MIC KP 48 h [11]: >500 µM; MIC ([12]; 72 h, read-out: MIC TI 72 h): > 500 µM; MIC ([12]; 120 h, read-out: MIC TI 120 h): > 500 µM; MIC KP-E 24 h [13]: >500 µM; MIC KP-E 48 h [13]: >500 µM
O=C(O)c1ccc(N=Cc2cc(Cl)ccc2O)cc1 [1c, 4-[(5-Chloro-2-hydroxybenzylidene)amino]benzoic acid] | 1000 (≈ 276 µg/mL) | > 1000 | 125 (≈ 34.5 µg/mL) | 125 (≈ 34.5 µg/mL) | > 125 | > 125 | > 125 | > 125 | > 500 | > 500 | 125 (≈ 34.5 µg/mL) | 125 (≈ 34.5 µg/mL) | > 500 | > 500 | 250 (≈ 68.9 µg/mL) | 500 (≈ 138 µg/mL) | 250 (≈ 68.9 µg/mL) | 250 (≈ 68.9 µg/mL) | 500 (≈ 138 µg/mL) | > 500 | MIC [7, 26]: > 500 µM; MIC [8, 27]: 62.5 µM (≈ 17.2 µg/mL); MIC [8, 28]: 62.5 µM (≈ 17.2 µg/mL); MIC ([9]; 24 h, read-out: MIC LC 24 h): > 125 µM; MIC ([9]; 48 h, read-out: MIC LC 48 h): > 125 µM; MIC [10, 29]: 500 µM (≈ 138 µg/mL); MIC [10, 30]: 500 µM (≈ 138 µg/mL); MIC [10, 31]: 1000 µM (≈ 276 µg/mL); MIC KP 24 h [11]: >500 µM; MIC KP 48 h [11]: >500 µM; MIC ([12]; 72 h, read-out: MIC TI 72 h): 125 µM (≈ 34.5 µg/mL); MIC ([12]; 120 h, read-out: MIC TI 120 h): 125 µM (≈ 34.5 µg/mL); MIC KP-E 24 h [13]: >500 µM; MIC KP-E 48 h [13]: >500 µM
O=C(O)c1ccc(N=Cc2cc(Br)ccc2O)cc1 [1d, 4-[(5-Bromo-2-hydroxybenzylidene)amino]benzoic acid] | 500 (≈ 160 µg/mL) | 500 (≈ 160 µg/mL) | 125 (≈ 40 µg/mL) | 125 (≈ 40 µg/mL) | 250 (≈ 80 µg/mL) | 250 (≈ 80 µg/mL) | 125 (≈ 40 µg/mL) | 125 (≈ 40 µg/mL) | > 250 | > 250 | 125 (≈ 40 µg/mL) | 125 (≈ 40 µg/mL) | > 250 | > 250 | 250 (≈ 80 µg/mL) | 500 (≈ 160 µg/mL) | 250 (≈ 80 µg/mL) | 250 (≈ 80 µg/mL) | 500 (≈ 160 µg/mL) | > 250 | MIC [7, 26]: > 250 µM; MIC [8, 27]: 62.5 µM (≈ 20 µg/mL); MIC [8, 28]: 62.5 µM (≈ 20 µg/mL); MIC ([9]; 24 h, read-out: MIC LC 24 h): > 250 µM; MIC ([9]; 48 h, read-out: MIC LC 48 h): > 250 µM; MIC [10, 29]: 500 µM (≈ 160 µg/mL); MIC [10, 30]: 500 µM (≈ 160 µg/mL); MIC [10, 31]: 500 µM (≈ 160 µg/mL); MIC KP 24 h [11]: >250 µM; MIC KP 48 h [11]: >250 µM; MIC ([12]; 72 h, read-out: MIC TI 72 h): 62.5 µM (≈ 20 µg/mL); MIC ([12]; 120 h, read-out: MIC TI 120 h): 62.5 µM (≈ 20 µg/mL); MIC KP-E 24 h [13]: >250 µM; MIC KP-E 48 h [13]: >250 µM
